Assay results reported in patent publication US20260287592A1, “ANALYSIS METHOD AND ANALYSIS SYSTEM” (priority 2023, published 2026).

Test system: HER3
Conditions: Type3: SN-38 0.01 μM, gefitinib 0.00 μM; SKBR-3 cells, 24 hours; anti-HER3 staining

Structure (SMILES): CCc1c2c(nc3ccc(O)cc13)-c1cc3c(c(=O)n1C2)COC(=O)[C@]3(O)CC [SN-38, 7-ethyl-10-hydroxycamptothecin]
- AVERAGE VALUE OF 10 WELLS FOR NUMBER OF BRIGHT SPOTS PER CELL: 12
